“And” between values parts separate entries of the source, which are not always exact repeats. Equal entries are not always repeated.
Columns and labels:
[1] = Stability testing for 25HC3S sodium salt for injection, 30 mg/mL after constitution; type: physicochemical; details: for Degree of Coloration of Liquids: BY = brown-yellow
Experimental: Sterile water for injection, USP (6.14 kg) was added into a 10L stainless steel vessel. […] HPbCD, NF (1851.85 g) was added in small portions over 15 minutes with slow stirring into the beaker. The stirring was increased to 250-350 rpm for an additional minimum 30 minutes to form a clear solution. The solution was filtered through a 0.22 micron filter. Filtered vehicle (7 mL) was filled into 10 mL glass vials, which were sealed with 20 mm stoppers, and crimp sealed. The vehicle vials were sterilized with gamma irradiation at approximately 28-32 kGy.
25HC3S sodium salt was micronized by passing through a Fluid Energy Model 00 Jet-O-Mizer Jet Mill. Micronized drug substance (186 mg) was added into a 10 mL glass vial, sealed with 20 mm stoppers, and crimp sealed. The 25HC3S powder vials were sterilized with gamma irradiation at approximately 28-32 kGy
Sterile vehicle (6.0 mL) comprised of 250 mg/mL HPbCD and 10 mM phosphate buffer was added to a vial of 25HC3S micronized powder. The mixture was shaken for 15 minutes to prepare a solution resulting in a 25HC3S sodium salt concentration of 30 mg/mL (allowing for 3% dilution upon the dissolution of drug).
Stability data for 6 months at 2-8° C. to 40° C./75% RH for 25HC3S for injection, 30 mg/mL after constitution, are listed in Table 5. This lot of 25HC3S powder, and the vehicle used to constitute it, were gamma sterilized at approximately 28-32 kGy. The data supports a 12 month retest date when stored at 2-8° C.

[2] = Solubility of 25HC3S in alpha-, beta- and gamma-cyclodextrin, 10 mM phosphate buffer pH 7.4; type: physicochemical; details: for repeated solubility of 25HC3S: repeated experiment
Experimental: The solubility of 25HC3S at ambient room temperature for one day in 5 and 10% (w/v) alpha cyclodextrin (α-CD), 1% (w/v) beta cyclodextrin (β-CD) and 5 and 10% (w/v) gamma cyclodextrin (γ-CD), each containing 10 mM phosphate buffer at pH 7.4 was determined by an HPLC method.
α-CD, β-CD and γ-CD were used in the study. Sodium phosphate monobasic, monohydrate and sodium phosphate, dibasic, anhydrous were used to prepare 10 mM phosphate buffer at pH 7.4.
Approximately 30 to 50 mg of 25HC3S was weighed into a 20 mL vial (5 vials total, one vial for each vehicle). Approximately 8 mL each of 5 and 10% (w/v) α-CD, 1% (w/v) β-CD, and 5 and 10% (w/v) γ-CD containing 10 mM phosphate buffer at pH 7.4 was added to each vial, respectively. The samples were sonicated and vortexed to disperse the drug. The drug suspensions in these 5 vials were stirred at 500 rpm at ambient RT (20.0-22.2° C.). On day 1, approximately 1.2 mL each of the suspensions was transferred into 2 mL conical vials (a total of 5 vials for each suspension) and centrifuged at 12,000 rpm for 10 min. Approximately 1 mL of the supernatant from each suspension (prior to filtration) was used for HPLC analysis. The supernatants for the rest of the vials from the same suspension were combined together and filtered through […], 13 mm in diameter Acrodisk syringe filter with Nylon membrane. The first 2-mL of filtrate was discarded. The next 2 consecutive filtrates of 0.5-0.7 mL each were collected into HPLC vials for analysis.

## C[C@H](CCCC(C)(C)O)[C@H]1CC[C@H]2[C@@H]3CC=C4C[C@@H](OS(=O)(=O)[O-])CC[C@]4(C)[C@H]3CC[C@]12C.[Na+] [25HC3S, 5-cholesten-3, 25-diol, 3-sulfate]
[1]; 2-8°C, 0 months
  % Individual Unspecified Degradant RRT = 0.60: 0.2%
  % Individual Unspecified Degradant RRT = 0.64: 0.4%
  % Individual Unspecified Degradant RRT = 2.74: 0.4%
  % Individual Unspecified Degradant RRT = 3.77: 0.3%
  % Total Degradation Products: 2.5%
  % Water Content: 6.23%
  Appearance: White powder
  Assay (label strength of 30 mg/mL): Mean: 98.7%
  Osmolality: 321 mmol/kg
  pH: 6.62
  Degree of Coloration of Liquids: BY6
[1]; 2-8°C, 3 months
  % Individual Unspecified Degradant RRT = 0.60: 0.2%
  % Individual Unspecified Degradant RRT = 0.64: 0.4%
  % Individual Unspecified Degradant RRT = 2.74: 0.4%
  % Individual Unspecified Degradant RRT = 3.77: 0.3%
  % Total Degradation Products: 2.8%
  % Water Content: 5.62%
  Assay (label strength of 30 mg/mL): 96.7%
  Osmolality: 322 mmol/kg
  pH: 5.82
[1]; 2-8°C, 6 months
  % Individual Unspecified Degradant RRT = 0.60: 0.3%
  % Individual Unspecified Degradant RRT = 0.64: 0.4%
  % Individual Unspecified Degradant RRT = 2.74: 0.4%
  % Individual Unspecified Degradant RRT = 3.77: 0.3%
  % Total Degradation Products: 3.0%
  % Water Content: 6.13%
  Assay (label strength of 30 mg/mL): 100.0%
  Osmolality: 323 mmol/kg
  pH: 5.34
  Degree of Coloration of Liquids: BY6
[1]; 25°C/60% RH, 1 month
  % Individual Unspecified Degradant RRT = 0.60: 0.3%
  % Individual Unspecified Degradant RRT = 0.64: 0.4%
  % Individual Unspecified Degradant RRT = 2.74: 0.4%
  % Individual Unspecified Degradant RRT = 3.77: 0.3%
  % Total Degradation Products: 2.9%
  % Water Content: 5.29%
  Assay (label strength of 30 mg/mL): 98.3%
  Osmolality: 330 mmol/kg
  pH: 5.18
[1]; 25°C/60% RH, 3 months
  % Individual Unspecified Degradant RRT = 0.60: 0.3%
  % Individual Unspecified Degradant RRT = 0.64: 0.4%
  % Individual Unspecified Degradant RRT = 2.74: 0.4%
  % Individual Unspecified Degradant RRT = 3.77: 0.3%
  % Total Degradation Products: 2.9%
  % Water Content: 5.40%
  Assay (label strength of 30 mg/mL): 96.0%
  Osmolality: 322 mmol/kg
  Degree of Coloration of Liquids: BY5
[1]; 25°C/60% RH, 6 months
  % Individual Unspecified Degradant RRT = 0.60: 0.4%
  % Individual Unspecified Degradant RRT = 0.64: 0.4%
  % Individual Unspecified Degradant RRT = 2.74: 0.4%
  % Individual Unspecified Degradant RRT = 3.77: 0.3%
  % Total Degradation Products: 3.0%
  % Water Content: 5.65%
  Assay (label strength of 30 mg/mL): 96.2%
  Osmolality: 319 mmol/kg
  Degree of Coloration of Liquids: BY5
[1]; 40°C/75% RH, 1 month
  % Individual Unspecified Degradant RRT = 0.60: 0.3%
  % Individual Unspecified Degradant RRT = 0.64: 0.4%
  % Individual Unspecified Degradant RRT = 2.74: 0.4%
  % Individual Unspecified Degradant RRT = 3.77: 0.3%
  % Total Degradation Products: 2.9%
  % Water Content: 5.03%
  Assay (label strength of 30 mg/mL): 95.8%
  Osmolality: 330 mmol/kg
[1]; 40°C/75% RH, 3 months
  % Individual Unspecified Degradant RRT = 0.60: 0.3%
  % Individual Unspecified Degradant RRT = 0.64: 0.4%
  % Individual Unspecified Degradant RRT = 2.74: 0.5%
  % Individual Unspecified Degradant RRT = 3.77: 0.4%
  % Total Degradation Products: 3.3%
  % Water Content: 5.33%
  Assay (label strength of 30 mg/mL): 96.2%
  Osmolality: 327 mmol/kg
[1]; 40°C/75% RH, 6 months
  % Individual Unspecified Degradant RRT = 0.60: 0.4%
  % Individual Unspecified Degradant RRT = 0.64: 0.5%
  % Individual Unspecified Degradant RRT = 2.74: 0.4%
  % Individual Unspecified Degradant RRT = 3.77: 0.3%
  % Total Degradation Products: 2.8%
  % Water Content: 6.34%
  Assay (label strength of 30 mg/mL): 97.1%
  Osmolality: 324 mmol/kg
[1]; stored at 2-8°C
  retest date supported by the data: 12 month
[2]; 0 cyclodextrin, 10 mM phosphate pH 7.4, room temperature
  25HC3S Solubility: 6 μg/mL and 0.012 mM
[2]; 1% (w/v) beta-CD
  25HC3S Solubility: 4.314 mM
  Complexation with CD: yes
  Ratio of CD/25HC3S: 2 mM/mM
[2]; 1% (w/v) beta-CD (10 mg/mL), 10 mM phosphate pH 7.4, RT, one day
  25HC3S Solubility: 2177.4 µg/mL
[2]; 5% (w/v) alpha-CD
  25HC3S Solubility: 0.065 mM
  Complexation with CD: no
  Ratio of CD/25HC3S: 791 mM/mM
[2]; 5% (w/v) alpha-CD (50 mg/mL), 10 mM phosphate pH 7.4, RT, one day
  25HC3S Solubility: 32.9 µg/mL
[2]; 5% (w/v) gamma-CD
  25HC3S Solubility: 1.118 mM
  Complexation with CD: no
  Ratio of CD/25HC3S: 34 mM/mM
[2]; 5% (w/v) gamma-CD (50 mg/mL), 10 mM phosphate pH 7.4, RT, one day
  25HC3S Solubility: 564.4 µg/mL
[2]; 5% (w/v) γ-CD
  repeated solubility of 25HC3S: 292.4 µg/mL
[2]; 10% (w/v) alpha-CD
  25HC3S Solubility: 0.089 mM
  Complexation with CD: no
  Ratio of CD/25HC3S: 1155 mM/mM
[2]; 10% (w/v) alpha-CD (100 mg/mL), 10 mM phosphate pH 7.4, RT, one day
  25HC3S Solubility: 45 µg/mL
[2]; 10% (w/v) gamma-CD
  25HC3S Solubility: 0.301 mM
  Complexation with CD: no
  Ratio of CD/25HC3S: 256 mM/mM
[2]; 10% (w/v) gamma-CD (100 mg/mL), 10 mM phosphate pH 7.4, RT, one day
  25HC3S Solubility: 152.1 µg/mL
[2]; 10% (w/v) γ-CD
  repeated solubility of 25HC3S: 98.2 µg/mL

Reference: patent publication US20230047788A1, “COMPOSITIONS COMPRISING 5-CHOLESTEN-3, 25-DIOL, 3-SULFATE (25HC3S) OR PHARMACEUTICALLY ACCEPTABLE SALT THEREOF AND AT LEAST ONE CYCLIC OLIGOSACCHARIDE” (Virginia Commonwealth University, priority 2016, published 2023)
